According to PMC8306139, “A Novel Dialkylamino-Functionalized Chalcone, DML6, Inhibits Cervical Cancer Cell Proliferation, In Vitro, via Induction of Oxidative Stress, Intrinsic Apoptosis and Mitotic Catastrophe” (Molecules, 2021):

Key:
Type in all cases: cell-based
[1] = test system: caspase-3/7 in OV2008 cells; test: Time-dependent apoptosis induction (Caspase-3/7 Green reagent)
Procedure: Cell Event™ Caspase-3/7 Green Detection Reagent from (Catalog # C10423, Life Technologies, Carlsbad, CA, USA), which is a novel fluorogenic substrate for activated caspase-3/7 that is compatible with living cells, was used to determine apoptosis activation in real-time in OV2008 cells incubated with DML6. Briefly, OV2008 cells were seeded in 96-well plates at a density of 1 × 10^3 cell/well. Twenty-four hours later, the cells were incubated with the vehicle (DMEM media with 10% FBS and 1% penicillin and streptomycin), 5 or 20 µM of DML6 for 72 h. Five micromolar of the apoptosis-detecting reagents were added to the cells immediately after DML6 and were incubated for up to 72 h at 37 °C. Fluorescence was determined every 24h using a live cell imaging system (IncuCyte Zoom, Essen Bioscience, Ann Arbor, MI, USA, using an absorption/emission maximum of ~502/530 nm.

[2] = test system: OV2008 cells; test: Apoptosis and mitochondrial membrane potential (MitoTracker Red / Alexa Fluor 488 annexin V); settings: 24 h; for percentage of apoptotic cells in quadrant II (Q2): vehicle 8.41%; for percentage of live cells in quadrant I (Q1): vehicle 90.86%
Procedure: MitoTracker® Red and Alexa Fluor 488 annexin V kits for flow cytometry (Molecular Probes Inc., Eugene, OR, USA) were used to determine the mitochondrial membrane potential and apoptosis, respectively, in OV2008 cells, as previously described. OV2008 cells were seeded in 6-well plates and incubated with the vehicle, 5 or 20 μM of DML6 for 24 h. The following day, the cells were trypsinized using 0.25% trypsin, 2.21 mM EDTA, 1×, counted and 4 μL of 10 μM MitoTracker® Red working solution was added to 1 mL of the harvested cells. The cells were incubated at 37 °C with 5% CO2 for 30 min. The cells were washed with ice-cold phosphate-buffered saline (PBS), followed by cell resuspension in 100 μL of the annexin binding buffer. The cell suspensions were then incubated with 5 μL of Alexa Fluor 488 annexin V for 15 min, followed by adding 400 μL of the annexin-binding buffer. Finally, flow cytometry was used to detect the fluorescence of stained cells at the following excitation/emission maximum: Alexa Fluor® 488 annexin V: 499/521 nm; MitoTracker® Red: 579/599 nm, using a flow cytometer BD FACSCanto™ (BD Biosciences, Becton-Dickinson, San Jose, CA, USA) and analyzed using FCS Express 7 plus De Novo software (Glendale, CA, USA).

[3] = test system: HeLa; test: MTT assay, HeLa; settings: Homo sapiens, HeLa, 72 h, read-out: IC50 ± SD Cervical HeLa
Procedure: Table S1. The antiproliferative efficacy of the DML1-DML12 compounds on the proliferation of cervical cancer cell line.
Figure S1. The efficacy of DML6 in HeLa cancer cells. The cell-viability curve produced by HeLa cells treated with
vehicle (0 μM), 5 or 10 μM of DML6 after 72 h of incubation. Cell survival was determined using the MTT assay. The
IC50 values are represented as the means ± SD of three independent experiments performed in triplicate. […]

[4] = test system: MDA-MB-231; test: MTT assay, MDA-MB-231; settings: Homo sapiens, MDA-MB-231, 72 h, read-out: IC50 ± SD Breast MDA-MB-231
Procedure: (§2) The concentration of the tested compounds that produced a 50% inhibition of cell growth (IC50) was determined.
(§3) A panel of cancer cell lines, including cervical (OV2008 and HeLa), breast (MDA-MB-231), lung (A549) and colon (LOVO), prostate (DU145), human embryonic kidney cells (HEK293), human colon fibroblast cells (CRL1459), and Chinese hamster ovary cells (CHO), were grown as adherent monolayers in flasks containing Dulbecco’s modified Eagle medium (DMEM), supplemented with 10% fetal bovine serum (FBS) and 1% penicillin and streptomycin, in a humidified incubator with 5% CO2 at 37 °C.
(§4) The cells were seeded evenly (180 μL/well) in 96-well plates, at a density of 3000–5000 cells/well and incubated with serial dilutions of the compounds ranging from 0.1 to 100 μM. The MTT dye (4 mg/ml) was added after 72 h of incubation and incubated with the cells for an additional 4 h at 37 °C, allowing the viable cells to biotransform the yellow-colored MTT into dark-blue formazan crystals. Following incubation, the medium was aspirated, and the formazan crystals were dissolved by adding 100 μL of DMSO to each well. Cytation™ 5 and Cytation™ 7 multi-mode detector (Bio Tek Instruments, Winooski, VT, USA) was used to determine the absorbance readings at a wavelength of 570 nm. The IC50 values were determined based on 3 separate experiments, with each experiment carried out in triplicate.

[5] = test system: Bax; test: Western blot, Bax; settings: OV2008, 5 and 20 μM, 24 h, vs vehicle
Procedure: (§1) The OV2008 cells were lysed to obtain total cellular protein fractions using Mammalian Protein Extraction Reagent (Catalog # 78501, M-PER™, Thermo Fisher Scientific, Waltham, MA, USA). The cells were seeded in […] at a density of 1 × 10^6 and incubated with 5 or 20 µM of DML6 or 1 µM of doxorubicin (Catalog # T1-2-, TargetMol, Boston, MA, USA) (a positive control) for 24 h. The following day, the cells were washed with ice-cold PBS, scraped using a cell scrapper and collected in Eppendorf tubes. The tubes were centrifuged at 1500 RPM at 4 °C for 5 min. The solution was discarded and replaced with 70 µL of the cell lysis buffer (M-PER reagent, 100 mM Sodium Orthovanadate (NaOV) at a final concentration of 2.5 mM) and a 100X protease inhibitor cocktail (Catalog # P8340, Sigma-Aldrich, St. Louis, MO, USA, final concentration of 1X, containing of aprotinin, bestatin, E-64, leupeptin and pepstatin). Thirty minutes later, the resulting solution was centrifuged at 10,000 RPM at 4 °C for 5 min and the supernatant was collected. The protein concentration of the cell extracts was determined using the bicinchoninic acid (BCA) (Catalog # 786-570, G-Biosciences, Saint Louis, MO, USA) quantification assay. […] Finally, the amount of protein in each blot was quantified using the Image J software (NIH, Bethesda, MD, USA). All data were calculated as a ratio to β-actin.

[6] = test system: caspase-7; test: Western blot, cleaved caspase-7; settings: OV2008, 5 or 20 µM, vs vehicle
Procedure: as §1

[7] = test system: LOVO; test: MTT assay, LOVO; settings: Homo sapiens, LoVo, 72 h, read-out: IC50 ± SD Colon LOVO
Procedure: as §2, §3, §4

SMILES: CN(C)c1ccc(/C=C/C(=O)c2ccc(Cl)cc2Cl)cc1 [DML6, (E)-1-[2,4-dichlorophenyl]-3-(4-(dimethylamino)phenyl)prop-2-en-1-one]
- incubation time required to induce apoptosis ([1]; 5 µM): ≈ 48 h
- incubation time required to induce apoptosis ([1]; 20 µM): < 24 h
- apoptosis induction by activating caspase-3 and caspase-7 ([1]; 5 or 20 μM, time-dependent, vs vehicle): significantly induced apoptosis
- percentage of apoptotic cells in quadrant II (Q2) ([2]; 5 µM): 41.38%
- percentage of live cells in quadrant I (Q1) ([2]; 5 µM): 53.39%
- percentage of apoptotic cells in quadrant II (Q2) ([2]; 20 µM): 73.67%
- percentage of live cells in quadrant I (Q1) ([2]; 20 µM): 22.37%
- IC50 [3]: 9.08 ± 0.69 µM
- IC50 [4]: 91.9 ± 11.5 µM
- expression of the pro-apoptotic protein Bax [5]: significantly increased the expression
- cleavage (activation) of caspase-7 [6]: significantly increased the cleavage
- IC50 [7]: 65 ± 49.5 µM
